According to publication PMC10046961, “High-Throughput Screening Assay for Detecting Drug-Induced Changes in Synchronized Neuronal Oscillations and Potential Seizure Risk Based on Ca^2+ Fluorescence Measurements in Human Induced Pluripotent Stem Cell (hiPSC)-Derived Neuronal 2D and 3D Cultures” (Cells, 2023):
Where two headings read alike, the source gives them in different places.

Legend:
[1] = ref PharmaPendium, cited from earlier work
[2] = tested on: hiPSC-derived neurons co-cultured with human primary astrocytes in 3D; experiment: Ca2+ transient oscillation assay (FDSS), 3D spheroids; format: cell-based; details: 60 min
Outline: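 Fura-2 fluorescence was read twice for 20 min each: a baseline 10 min after 0.04% DMSO, and again 60 min after compound addition at nominal final concentration. The 3D co-cultures (1:1 hiPSC neurons from a donor and human astrocytes, 8000 each) matured 5 weeks in BrainPhys medium after a 1-week differentiation.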

[3] = tested on: hiPSC-derived neurons co-cultured with human primary astrocytes in 2D; experiment: Ca2+ transient oscillation assay (FDSS), 2D co-culture; format: cell-based; details: for activation at 0.37 µM / activation at 1.11 µM / activation at 3.33 µM / activation at 10 µM / activation at 0.11 µM / activation at 0.33 µM / activation at 1 µM / activation at 3 µM: Homo sapiens, 1 h, 60 min
Outline: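 hiPSC-derived excitatory neurons (CW50065, Quick-Neuron EX-SeV) co-cultured with human primary astrocytes at 4:1 (10,000:2500 cells per well). Cal-520-loaded cells in HBSS with 2 mM CaCl2 and 10 mM HEPES were pretreated with 0.04% DMSO.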

[4] = Table 1, peak plasma concentration in men, free therapeutic Cmax
[5] = read-out: Area under the curve - 2D Mean
[6] = read-out: Peak amplitude - 2D Mean
[7] = read-out: Peak-to-peak interval - 2D Mean

SMILES: CCn1cc(C(=O)O)c(=O)c2cc(F)c(N3CCNCC3)nc21 [Enoxacin]
- Free Cmax [1, 4]: 1000 to 4000 nM
- Area under the curve - 3D Mean ([2]; 0.37 µM): 115.6 % change from baseline
- Peak Number—3D Mean ([2]; 0.37 µM): −16.9 % change from baseline
- Peak amplitude - 3D Mean ([2]; 0.37 µM): 106.8 % change from baseline
- Peak width - 3D Mean ([2]; 0.37 µM): 3.2 % change from baseline
- Peak-to-peak interval - 3D Mean ([2]; 0.37 µM): 30.9 % change from baseline
- Area under the curve - 3D Mean ([2]; 1.11 µM): 124.6 % change from baseline
- Peak Number—3D Mean ([2]; 1.11 µM): 5.5 % change from baseline
- Peak amplitude - 3D Mean ([2]; 1.11 µM): 123.3 % change from baseline
- Peak width - 3D Mean ([2]; 1.11 µM): −2.2 % change from baseline
- Peak-to-peak interval - 3D Mean ([2]; 1.11 µM): −0.7 % change from baseline
- Area under the curve - 3D Mean ([2]; 3.33 µM): 139.4 % change from baseline
- Peak Number—3D Mean ([2]; 3.33 µM): 13.2 % change from baseline
- Peak amplitude - 3D Mean ([2]; 3.33 µM): 129.6 % change from baseline
- Peak width - 3D Mean ([2]; 3.33 µM): 3.0 % change from baseline
- Peak-to-peak interval - 3D Mean ([2]; 3.33 µM): −1.3 % change from baseline
- Area under the curve - 3D Mean ([2]; 10 µM): 114.6 % change from baseline
- Peak Number—3D Mean ([2]; 10 µM): 2.2 % change from baseline
- Peak amplitude - 3D Mean ([2]; 10 µM): 116.3 % change from baseline
- Peak width - 3D Mean ([2]; 10 µM): −1.1 % change from baseline
- Peak-to-peak interval - 3D Mean ([2]; 10 µM): −1.1 % change from baseline
- activation at 0.37 µM [3, 5]: 25.5%
- activation at 0.37 µM ([3]; read-out: Peak Number—2D Mean): 1.3%
- activation at 0.37 µM [3, 6]: 7.8%
- activation at 0.37 µM ([3]; read-out: Peak width - 2D Mean): 18.3%
- activation at 0.37 µM [3, 7]: 18%
- activation at 1.11 µM [3, 5]: 41%
- activation at 1.11 µM ([3]; read-out: Peak Number—2D Mean): 2.3%
- activation at 1.11 µM [3, 6]: 5.3%
- activation at 1.11 µM ([3]; read-out: Peak width - 2D Mean): 45.8%
- activation at 1.11 µM [3, 7]: 1.3%
- activation at 3.33 µM [3, 5]: 47.3%
- activation at 3.33 µM ([3]; read-out: Peak Number—2D Mean): 5.5%
- activation at 3.33 µM [3, 6]: 13.5%
- activation at 3.33 µM ([3]; read-out: Peak width - 2D Mean): 39%
- activation at 3.33 µM [3, 7]: 12.7%
- activation at 10 µM [3, 5]: 49.3%
- activation at 10 µM ([3]; read-out: Peak Number—2D Mean): 2%
- activation at 10 µM [3, 6]: 11.3%
- activation at 10 µM ([3]; read-out: Peak width - 2D Mean): 49%
- activation at 10 µM [3, 7]: -3%

SMILES: NCCCC(=O)O [GABA, gamma-aminobutyric acid]
- Free Cmax [1, 4]: ~1000 nM
- Free Cmax ([1]; Table 2, highest plasma concentration in humans after the therapeutic dose): ~1000 nM
- Area under the curve - 3D Mean ([2]; 0.11 µM): 111.5 % change from baseline
- Peak Number—3D Mean ([2]; 0.11 µM): 5.0 % change from baseline
- Peak amplitude - 3D Mean ([2]; 0.11 µM): 87.8 % change from baseline
- Peak width - 3D Mean ([2]; 0.11 µM): 7.6 % change from baseline
- Peak-to-peak interval - 3D Mean ([2]; 0.11 µM): 0.2 % change from baseline
- Area under the curve - 3D Mean ([2]; 0.33 µM): 116.2 % change from baseline
- Peak Number—3D Mean ([2]; 0.33 µM): −1.8 % change from baseline
- Peak amplitude - 3D Mean ([2]; 0.33 µM): 112.0 % change from baseline
- Peak width - 3D Mean ([2]; 0.33 µM): 0.5 % change from baseline
- Peak-to-peak interval - 3D Mean ([2]; 0.33 µM): −2.1 % change from baseline
- Area under the curve - 3D Mean ([2]; 1 µM): 97.0 % change from baseline
- Peak Number—3D Mean ([2]; 1 µM): −0.6 % change from baseline
- Peak amplitude - 3D Mean ([2]; 1 µM): 90.5 % change from baseline
- Peak width - 3D Mean ([2]; 1 µM): −2.7 % change from baseline
- Peak-to-peak interval - 3D Mean ([2]; 1 µM): 8.3 % change from baseline
- Area under the curve - 3D Mean ([2]; 3 µM): 118.7 % change from baseline
- Peak Number—3D Mean ([2]; 3 µM): 2.2 % change from baseline
- Peak amplitude - 3D Mean ([2]; 3 µM): 110.9 % change from baseline
- Peak width - 3D Mean ([2]; 3 µM): 0.7 % change from baseline
- Peak-to-peak interval - 3D Mean ([2]; 3 µM): −2.5 % change from baseline
- effect on peak number / Ca2+ neuronal oscillations, in words ([3]; 2D format): significantly reduced peak number
- activation at 0.11 µM [3, 5]: 23.1%
- activation at 0.11 µM ([3]; read-out: Peak Number—2D Mean): -1.6%
- activation at 0.11 µM [3, 6]: 9.1%
- activation at 0.11 µM ([3]; read-out: Peak width - 2D Mean): 13.2%
- activation at 0.11 µM [3, 7]: -12.3%
- activation at 0.33 µM [3, 5]: 21.1%
- activation at 0.33 µM ([3]; read-out: Peak Number—2D Mean): -4.4%
- activation at 0.33 µM [3, 6]: 5.7%
- activation at 0.33 µM ([3]; read-out: Peak width - 2D Mean): 15.4%
- activation at 0.33 µM [3, 7]: 29.1%
- activation at 1 µM [3, 5]: 16.4%
- activation at 1 µM ([3]; read-out: Peak Number—2D Mean): -12.4%
- activation at 1 µM [3, 6]: -1.4%
- activation at 1 µM ([3]; read-out: Peak width - 2D Mean): 11.7%
- activation at 1 µM [3, 7]: 32%
- activation at 3 µM [3, 5]: 14.9%
- activation at 3 µM ([3]; read-out: Peak Number—2D Mean): -36.5%
- activation at 3 µM [3, 6]: -2.7%
- activation at 3 µM ([3]; read-out: Peak width - 2D Mean): 8.5%
- activation at 3 µM [3, 7]: -26.3%
